According to the supplement of paper PMC11208160:

Experiment: recombinant UMI read abundance after kanamycin selection (control-corrected) (log10(CPM+1)); higher = more efficient recombination; extreme values may be limits of the assay; sequences stand for … in AGTGCAGAGAAAATCGGCCAGTTTTCTCTGCCTGCAGTCCGCATGCCGTGGGACCCCTTGGGTTCTAACCTGTTGCCTAGATTTATGCAGCGGACTGCCTTTCTCCCAAAGTGATAAACCGG…AGGTTGGTTTCACT; site = the 11-nt donor
Outline: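 Under IPTG (0.07 mM) plus kanamycin, or without selection, Escherichia coli carrying a UMI-tagged donor and donor-binding-loop pair library and a target plasmid for the IS621 bridge recombinase were plated in two replicates. Recombinant UMIs were PCR-amplified across the donor–target junction and sequenced. Counts were converted to CPM, averaged over replicates, scaled by control-derived factors and reported as log10(CPM+1).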
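Note: IS621 bridge recombinase in Escherichia coli cells against a fixed T5 target plasmid.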

Sequence	recombinant UMI read abundance (log10)
GCCAAGCCATGGACCGGTTTTCCCGGTAATCCGTATTTGGG (site GCCAAGCCTCC)	0.0135
GCCAAGCCATGGACCGGTTTTCCCGGTAATCCGTATTTGGG (site GCGAAGCCTCC)	0
GCCAAGCCATGGACCGGTTTTCCCGGTAATCCGTATTTGGG (site GCTAAGCCTCC)	0
GCCAATCCATGGACCGGTTTTCCCGGTAATCCGTATTTGAA (site GACAATCCTTT)	0.01
GCCAATCCATGGACCGGTTTTCCCGGTAATCCGTATTTGAA (site GCCAATCCTTT)	0.53
GCCAATCCATGGACCGGTTTTCCCGGTAATCCGTATTTGAA (site GGCAATCCTTT)	0
GCCAATCCATGGACCGGTTTTCCCGGTAATCCGTATTTGAA (site GTCAATCCTTT)	0.00267
GCCACAGCATGGACCGGTTTTCCCGGTAATCCGTATTTGTT (site GCCACAGCTAA)	1.48
GCCACCCCATGGACCGGTTTTCCCGGTAATCCGTATTTGTA (site GCCACACCTTA)	0.0331
GCCACCCCATGGACCGGTTTTCCCGGTAATCCGTATTTGTA (site GCCACCCCTTA)	0
GCCACCCCATGGACCGGTTTTCCCGGTAATCCGTATTTGTA (site GCCACGCCTTA)	0
GCCACCCCATGGACCGGTTTTCCCGGTAATCCGTATTTGTA (site GCCACTCCTTA)	0.0101
GCCACCGCATGGACCGGTTTTCCCGGTAATCCGTATTTGCG (site ACCACCGCTCG)	0.439
GCCACCGCATGGACCGGTTTTCCCGGTAATCCGTATTTGCG (site CCCACCGCTCG)	0.0179
GCCACCGCATGGACCGGTTTTCCCGGTAATCCGTATTTGCG (site GCCACCGCTCG)	0.939
GCCACCGCATGGACCGGTTTTCCCGGTAATCCGTATTTGCG (site TCCACCGCTCG)	0.00586
GCCACGCCATGGACCGGTTTTCCCGGTAATCCGTATTTGTT (site GCCACGCCTAA)	0.0554
GCCACGCCATGGACCGGTTTTCCCGGTAATCCGTATTTGTT (site GCCACGCCTCA)	0.0173
GCCACGCCATGGACCGGTTTTCCCGGTAATCCGTATTTGTT (site GCCACGCCTGA)	0
GCCACGCCATGGACCGGTTTTCCCGGTAATCCGTATTTGTT (site GCCACGCCTTA)	0.00385
GCCACGTCATGGACCGGTTTTCCCGGTAATCCGTATTTGTA (site GCCACGACTTA)	0.0796
GCCACGTCATGGACCGGTTTTCCCGGTAATCCGTATTTGTA (site GCCACGCCTTA)	0.0201
GCCACGTCATGGACCGGTTTTCCCGGTAATCCGTATTTGTA (site GCCACGGCTTA)	0
GCCACGTCATGGACCGGTTTTCCCGGTAATCCGTATTTGTA (site GCCACGTCTTA)	2.47
GCCACTGCATGGACCGGTTTTCCCGGTAATCCGTATTTGCC (site GCAACTGCTGG)	1.19

Sequence	recombinant UMI read abundance (log10)
GCCACTGCATGGACCGGTTTTCCCGGTAATCCGTATTTGCC (site GCCACTGCTGG)	1.63
GCCACTGCATGGACCGGTTTTCCCGGTAATCCGTATTTGCC (site GCGACTGCTGG)	0
GCCACTGCATGGACCGGTTTTCCCGGTAATCCGTATTTGCC (site GCTACTGCTGG)	0
GCCACTTCATGGACCGGTTTTCCCGGTAATCCGTATTTGTT (site GCCACTTCTAA)	0.855
GCCAGACCATGGACCGGTTTTCCCGGTAATCCGTATTTGGA (site GCCAGACCTTC)	0.0205
GCCAGTCCATGGACCGGTTTTCCCGGTAATCCGTATTTGAT (site GCCAGTCCTAT)	0.00932
GCCATACCATGGACCGGTTTTCCCGGTAATCCGTATTTGTG (site GCCATACCTCA)	0.00697
GCCATGCCATGGACCGGTTTTCCCGGTAATCCGTATTTGTA (site GCCAAGCCTTA)	0.00915
GCCATGCCATGGACCGGTTTTCCCGGTAATCCGTATTTGTA (site GCCACGCCTTA)	0.0146
GCCATGCCATGGACCGGTTTTCCCGGTAATCCGTATTTGTA (site GCCAGGCCTTA)	0.00785
GCCATGCCATGGACCGGTTTTCCCGGTAATCCGTATTTGTA (site GCCATGCCTTA)	1.26
GCCCCGCCATGGACCGGTTTTCCCGGTAATCCGTATTTGTA (site GCCACGCCTTA)	0.324
GCCCCGCCATGGACCGGTTTTCCCGGTAATCCGTATTTGTA (site GCCCCGCCTTA)	0.478
GCCCCGCCATGGACCGGTTTTCCCGGTAATCCGTATTTGTA (site GCCGCGCCTTA)	0.0226
GCCCCGCCATGGACCGGTTTTCCCGGTAATCCGTATTTGTA (site GCCTCGCCTTA)	0.00782
GCCCGAGCATGGACCGGTTTTCCCGGTAATCCGTATTTGAA (site GCCCGAGCTTT)	1.82
GCCCTCGCATGGACCGGTTTTCCCGGTAATCCGTATTTGAC (site GCCCTCGCTGT)	2.61
GCCGATACATGGACCGGTTTTCCCGGTAATCCGTATTTGTA (site GCCGATACTTA)	1.91
GCCGGCTCATGGACCGGTTTTCCCGGTAATCCGTATTTGGA (site GCCGGCTCTTC)	0.632
GCCGTATCATGGACCGGTTTTCCCGGTAATCCGTATTTGAA (site GCCGTATCTTT)	2.31
GCCTACTCATGGACCGGTTTTCCCGGTAATCCGTATTTGGA (site GCCTACTCTTC)	1.91
GCCTCCGCATGGACCGGTTTTCCCGGTAATCCGTATTTGAG (site GCCTCCGCTCT)	0.364
GCCTCCTCATGGACCGGTTTTCCCGGTAATCCGTATTTGCT (site GCCTCCTCTAG)	2.9
GCCTTAGCATGGACCGGTTTTCCCGGTAATCCGTATTTGCC (site GCCTTAGCTGG)	0
GCGAAAACATGGACCGGTTTTCCCGGTAATCCGTATTTGCC (site GCGAAAACTAG)	0

Sequence	recombinant UMI read abundance (log10)
GCGAAAACATGGACCGGTTTTCCCGGTAATCCGTATTTGCC (site GCGAAAACTCG)	0
GCGAAAACATGGACCGGTTTTCCCGGTAATCCGTATTTGCC (site GCGAAAACTGG)	0
GCGAAAACATGGACCGGTTTTCCCGGTAATCCGTATTTGCC (site GCGAAAACTTG)	0
GCGAAAACATGGACCGGTTTTCCCGGTAATCCGTATTTGCT (site ACGAAAACTAG)	2.25
GCGAAAACATGGACCGGTTTTCCCGGTAATCCGTATTTGCT (site CCGAAAACTAG)	0
GCGAAAACATGGACCGGTTTTCCCGGTAATCCGTATTTGCT (site GAGAAAACTAG)	0
GCGAAAACATGGACCGGTTTTCCCGGTAATCCGTATTTGCT (site GCAAAAACTAG)	0
GCGAAAACATGGACCGGTTTTCCCGGTAATCCGTATTTGCT (site GCCAAAACTAG)	0
GCGAAAACATGGACCGGTTTTCCCGGTAATCCGTATTTGCT (site GCGAAAACTAA)	0.207
GCGAAAACATGGACCGGTTTTCCCGGTAATCCGTATTTGCT (site GCGAAAACTAC)	0
GCGAAAACATGGACCGGTTTTCCCGGTAATCCGTATTTGCT (site GCGAAAACTAG)	0.854
GCGAAAACATGGACCGGTTTTCCCGGTAATCCGTATTTGCT (site GCGAAAACTAT)	0.00596
GCGAAAACATGGACCGGTTTTCCCGGTAATCCGTATTTGCT (site GCGAAAACTCG)	0
GCGAAAACATGGACCGGTTTTCCCGGTAATCCGTATTTGCT (site GCGAAAACTGG)	0
GCGAAAACATGGACCGGTTTTCCCGGTAATCCGTATTTGCT (site GCGAAAACTTG)	0
GCGAAAACATGGACCGGTTTTCCCGGTAATCCGTATTTGCT (site GCGAAACCTAG)	0
GCGAAAACATGGACCGGTTTTCCCGGTAATCCGTATTTGCT (site GCGAAAGCTAG)	0
GCGAAAACATGGACCGGTTTTCCCGGTAATCCGTATTTGCT (site GCGAAATCTAG)	0.325
GCGAAAACATGGACCGGTTTTCCCGGTAATCCGTATTTGCT (site GCGAACACTAG)	0.232
GCGAAAACATGGACCGGTTTTCCCGGTAATCCGTATTTGCT (site GCGAAGACTAG)	0
GCGAAAACATGGACCGGTTTTCCCGGTAATCCGTATTTGCT (site GCGAATACTAG)	0
GCGAAAACATGGACCGGTTTTCCCGGTAATCCGTATTTGCT (site GCGACAACTAG)	0.0316
GCGAAAACATGGACCGGTTTTCCCGGTAATCCGTATTTGCT (site GCGAGAACTAG)	0
GCGAAAACATGGACCGGTTTTCCCGGTAATCCGTATTTGCT (site GCGATAACTAG)	0.603
GCGAAAACATGGACCGGTTTTCCCGGTAATCCGTATTTGCT (site GCGCAAACTAG)	0
